Patent publication US4267189A, “Method of use and composition for 1,3-dihydro-3-(2-hydroxy-2-methylpropyl)-2H-isoindol-1-one” (American Home Products Corporation, priority 1979, dated 1981)

Key:
[1] = test system: Indomethacin-Induced Ulcer Formation; assay: Indomethacin-induced ulcer formation; assay type: in vivo, rat (female albino Sprague-Dawley); conditions: for Ulcers Formed: mean ± S.E.; for ED50: Rattus norvegicus, indomethacin-induced ulcers, oral, doses in mg/kg
Method: The method utilized for the production and evaluation of indomethacin-induced ulcer formation was essentially as described by Y. H. Lee et al., Arch. Int. Pharmacodyn. […] Indomethacin (20 mg/kg, i.p.) was given, the animals sacrificed by cervical dislocation 5 hr later and the number of ulcers present in the glandular portion of the stomach determined. The test compound was administered orally (0.2 ml) 1 hr before the indomethacin. The vehicle employed for the administrations was water containing Tween 80 (1 drop per 7 ml). There were 12-32 animals per group.

[2] = test system: Oxotremorine-Induced Effects; assay: Anticholinergic activity: antagonism of oxotremorine-induced effects (temperature, tremor, salivation, lacrimation); assay type: in vivo, mice; conditions: for Lacrimation (L) score / Salivation (S) score / Tremor (T) score: 2=strong, 1=weak, 0=none
Method: Anticholinergic activity was examined in vivo by determining the ability of the compound to antagonize oxotremorine-induced effects according to the method described by P. S. J. Spencer, Life Sci., 5, 1015 (1965). […] Rectal temperature was measured with a YSI telethermometer 402 physiological probe before administration of test compounds and oxotremorine and at 15 and 30 min after oxotremorine. At the same time the degree of tremor, salivation and lacrimation was scored as follows: 2=strong; 1=weak; 0=none.

[3] = test system: Cold-Restraint-Induced Ulcer Formation; assay: Cold-restraint-induced ulcer formation; assay type: in vivo, rat (male albino Sprague-Dawley); conditions: for Ulcers Formed: mean ± S.E.; for ED50: Rattus norvegicus, cold-restraint ulcers, oral, doses in mg/kg
Description: Int. Pharmacodyn. […] Exp. Biol. Med., 113, 998 (1963) as modified by E. C. Senay and R. J. Levine Proc. Soc. Exp. Biol. Med., 124, 1221 (1967) when administered orally or parenterally (see Examples 3 and 4).
To assess the effects of the test compound on the development of cold-restraint-induced gastric lesions, the method of D. A. Brodie and L. S. Valitski Proc. Soc. Exp. Biol. Med., 113, 998 (1963) as modified by E. C. Senay and R. J. Levine Proc. Soc. Exp. Biol. Med., 124, 1221 (1967) was used. Food was withheld from male albino rats (165-175 g, Sprague-Dawley, Canadian Breeding Laboratories) for 24 hr but water was freely available. The test compound was administered orally (0.2 ml) to the animals (8-24 per group) 30 min before placing the animals into restrainers, the restrainer was made of plexiglass and restricted the movement of the rat to a minimum. The vehicle employed was as described above. The restrainers were placed in a cold environment (4°-7° C.) for 2 hr. The animals were sacrificed by cervical dislocation, the stomachs removed and the number of ulcers in the glandular portion of the stomach determined.

gastric acid secretion [4] = conditions: Lee et al.; cited from earlier work
Gastric Acid Secretion [5] = assay: Basal gastric acid secretion in the Shay (pylorus-ligated) rat; assay type: in vivo, rat (female Sprague Dawley); conditions: for Gastric Acid Output: mean ± S.E.; for ED50: Rattus norvegicus, gastric acid secretion; for basal gastric acid secretion (in words): rat
Method: Female Sprague Dawley rats (Canadian Breeding Laboratories; 160-180 g) were fasted for 48 hours before pyloric ligation. After the first 24 hours of fasting the animals were given access to 8% sucrose in 0.2% sodium chloride for 8 hours. Water was permitted ad libitum except during the 8 hour access to sucrose and after the drug treatment. The compounds were suspended in water with the aid of one drop of Tween 80 per 7 ml for oral or intraperitoneal administration. The pylorus was ligated under ether anesthesia and the sutured incision was covered with flexible collodion to prevent the animals from ingesting adhering blood. The stomachs were lavaged with 0.9% sodium chloride until the return solution was clear. Four hours after pyloric ligation, the animals were killed with diethyl ether and the gastric contents were collected in centrifuge tubes. The amount of acid in the centrifuged gastric juice was determined by titration against 0.1 N sodium hydroxide in a direct reading pH meter of pH 7.0.
Student's t test was used in the evaluation of the data. The ED50 's were obtained graphically by plotting the percent inhibition of gastric acid secretion versus the logarithm of the dose of the compound.

[6] = 2 mg/kg i.p., 15 min after oxotremorine
[7] = 2 mg/kg i.p., 30 min after oxotremorine
[8] = 5 mg/kg i.p., 15 min after oxotremorine
[9] = 5 mg/kg i.p., 30 min after oxotremorine
[10] = 25 mg/kg i.p., 15 min after oxotremorine
[11] = 25 mg/kg i.p., 30 min after oxotremorine
[12] = 100 mg/kg i.p., 15 min after oxotremorine
[13] = 100 mg/kg i.p., 30 min after oxotremorine

CN1[C@@H]2CC[C@H]1C[C@@H](OC(=O)C(CO)c1ccccc1)C2 (some centres unmarked) [Atropine, reference compound]
Ulcers Formed (% Inhibition) ([1]; 1 mg/kg p.o.): 47 % Inhibition
Ulcers Formed ([1]; 1 mg/kg p.o.): 5.2 ± 1.5
Ulcers Formed (% Inhibition) ([1]; 2 mg/kg p.o.): 85 % Inhibition
Ulcers Formed ([1]; 2 mg/kg p.o.): 1.5 ± 0.8
ED50 [1]: 1.1 mg/kg
Temperature Before Oxotremorine ([2]; 2 mg/kg i.p.): 37.6 ± 0.2 °C
Temperature after Oxotremorine ([2]; 2 mg/kg i.p., 15 min): 36.7 ± 0.4 °C
Lacrimation (L) score [2, 6]: 0
Salivation (S) score [2, 6]: 0
Tremor (T) score [2, 6]: 0
Temperature after Oxotremorine ([2]; 2 mg/kg i.p., 30 min): 35.7 ± 0.4 °C
Lacrimation (L) score [2, 7]: 0
Salivation (S) score [2, 7]: 0
Tremor (T) score [2, 7]: 0
Temperature Before Oxotremorine ([2]; 5 mg/kg i.p.): 37.2 ± 0.3 °C
Temperature after Oxotremorine ([2]; 5 mg/kg i.p., 15 min): 36.9 ± 0.2 °C
Lacrimation (L) score [2, 8]: 0
Salivation (S) score [2, 8]: 0
Tremor (T) score [2, 8]: 0.16
Temperature after Oxotremorine ([2]; 5 mg/kg i.p., 30 min): 36.9 ± 0.3 °C
Lacrimation (L) score [2, 9]: 0.16
Salivation (S) score [2, 9]: 0
Tremor (T) score [2, 9]: 0

CN(C)CCCN1c2ccccc2CCc2ccccc21 [Imipramine, reference compound]
Ulcers Formed (% Inhibition) ([3]; 1.25 mg/kg p.o.): 37 % Inhibition
Ulcers Formed ([3]; 1.25 mg/kg p.o.): 4.1 ± 1.5
Ulcers Formed (% Inhibition) ([3]; 2.5 mg/kg p.o.): 68 % Inhibition
Ulcers Formed ([3]; 2.5 mg/kg p.o.): 2.1 ± 0.8
Ulcers Formed (% Inhibition) ([3]; 5 mg/kg p.o.): 81 % Inhibition
Ulcers Formed ([3]; 5 mg/kg p.o.): 1.2 ± 0.4
ED50 [3]: 1.7 mg/kg

COc1ccc2c(c1)c(CC(=O)O)c(C)n2C(=O)c1ccc(Cl)cc1 [Indomethacin]
effect on gastric acid secretion (in words) (gastric acid secretion [4]): no effect on gastric acid secretion
ulcer formation (in words) (gastric acid secretion [4]): induces ulcer formation

CC(C)(O)CC1NC(=O)c2ccccc21 (centres unmarked) [Isoindol-1-one, 1,3-dihydro-3-(2-hydroxy-2-methylpropyl)-2H-isoindol-1-one]
Ulcers Formed (% Inhibition) ([3]; 50 mg/kg p.o.): 40 % Inhibition
Ulcers Formed ([3]; 50 mg/kg p.o.): 3.9 ± 1.2
Ulcers Formed (% Inhibition) ([3]; 100 mg/kg p.o.): 55 % Inhibition
Ulcers Formed ([3]; 100 mg/kg p.o.): 2.9 ± 0.5
Ulcers Formed (% Inhibition) ([3]; 200 mg/kg p.o.): 69 % Inhibition
Ulcers Formed ([3]; 200 mg/kg p.o.): 2.0 ± 0.8
ED50 [3]: 80 mg/kg
cold-restraint-induced ulcer formation (in words) ([3]; rat, orally or parenterally): cold-resistant-induced ulcer formation in the rat
Ulcers Formed (% Inhibition) ([1]; 25 mg/kg p.o.): 50 % Inhibition
Ulcers Formed ([1]; 25 mg/kg p.o.): 4.9 ± 1.2
Ulcers Formed (% Inhibition) ([1]; 50 mg/kg p.o.): 75 % Inhibition
Ulcers Formed ([1]; 50 mg/kg p.o.): 2.4 ± 0.7
Ulcers Formed (% Inhibition) ([1]; 100 mg/kg p.o.): 82 % Inhibition
Ulcers Formed ([1]; 100 mg/kg p.o.): 1.8 ± 0.6
ED50 [1]: 22 mg/kg
indomethacin-induced ulcer formation (in words) ([1]; rat, orally or parenterally): inhibiting indomethacin-induced ulcer formation in the rat
Temperature Before Oxotremorine ([2]; 25 mg/kg i.p.): 36.7 ± 0.2 °C
Temperature after Oxotremorine ([2]; 25 mg/kg i.p., 15 min): 31.4 ± 0.2 °C
Lacrimation (L) score [2, 10]: 2.0
Salivation (S) score [2, 10]: 2.0
Tremor (T) score [2, 10]: 2.0
Temperature after Oxotremorine ([2]; 25 mg/kg i.p., 30 min): 29.2 ± 0.2 °C
Lacrimation (L) score [2, 11]: 2.0
Salivation (S) score [2, 11]: 2.0
Tremor (T) score [2, 11]: 2.0
Temperature Before Oxotremorine ([2]; 100 mg/kg i.p.): 32.8 ± 0.2 °C
Temperature after Oxotremorine ([2]; 100 mg/kg i.p., 15 min): 31.2 ± 0.1 °C
Lacrimation (L) score [2, 12]: 0.7
Salivation (S) score [2, 12]: 2.0
Tremor (T) score [2, 12]: 2.0
Temperature after Oxotremorine ([2]; 100 mg/kg i.p., 30 min): 30.5 ± 0.2 °C
Lacrimation (L) score [2, 13]: 1.0
Salivation (S) score [2, 13]: 2.0
Tremor (T) score [2, 13]: 2.0
anticholinergic activity (in words) ([2]; see Example 5): does not exhibit appreciable anticholineric activity
Gastric Acid Output (% Inhibition) (Gastric Acid Secretion [5]; 12 mg/kg i.p.): 18 % Inhibition
Gastric Acid Output (Gastric Acid Secretion [5]; 12 mg/kg i.p.): 448 ± 59 μEg/4 hr
Gastric Acid Output (% Inhibition) (Gastric Acid Secretion [5]; 25 mg/kg i.p.): 49 % Inhibition
Gastric Acid Output (Gastric Acid Secretion [5]; 25 mg/kg i.p.): 275 ± 57 μEg/4 hr
Gastric Acid Output (% Inhibition) (Gastric Acid Secretion [5]; 25 mg/kg p.o.): 48 % Inhibition
Gastric Acid Output (Gastric Acid Secretion [5]; 25 mg/kg p.o.): 226 ± 48 μEq/4 hr
Gastric Acid Output (% Inhibition) (Gastric Acid Secretion [5]; 50 mg/kg i.p.): 90 % Inhibition
Gastric Acid Output (Gastric Acid Secretion [5]; 50 mg/kg i.p.): 56 ± 12 μEg/4 hr
Gastric Acid Output (% Inhibition) (Gastric Acid Secretion [5]; 50 mg/kg p.o.): 65 % Inhibition
Gastric Acid Output (Gastric Acid Secretion [5]; 50 mg/kg p.o.): 154 ± 33 μEq/4 hr
Gastric Acid Output (% Inhibition) (Gastric Acid Secretion [5]; 100 mg/kg p.o.): 84 % Inhibition
Gastric Acid Output (Gastric Acid Secretion [5]; 100 mg/kg p.o.): 71 ± 19 μEq/4 hr
ED50 (Gastric Acid Secretion [5]; ip, intraperitoneal administration): 25 mg/kg
ED50 (Gastric Acid Secretion [5]; oral administration): 28 mg/kg
basal gastric acid secretion (in words) (Gastric Acid Secretion [5]; listed as 1,3-Dihydro-3-(2-hydroxy-2-methylpropyl)-2H-isoindol-1-one): inhibiting basal gastric acid secretion in the rat
basal gastric acid secretion (in words) (Gastric Acid Secretion [5]; listed as 1,3-dihydro-3-(2-hydroxy-2-methylpropyl)-2H-isoindol-1-one): can inhibit gastric acid secretion
